Here are results for seven molecules from patent publication US20240368150A1 (Hoffmann-La Roche Inc., priority 2021, published 2024).

Like-named read-outs stand apart in the source and are kept apart here.

The subject of one test is MV-3 cells. The experiment in a line: T-cell - TCB - MV3 killing assay (MCSP-TCB, RFP object count by Incucyte). The conditions noted are these: Homo sapiens, MV-3, 120 h, 5 d; for Emax: normalized: MCSP-TCB only = neutral control, 20 μM reference compound A1 = 100%, read-out: MSCP TCB killing MV-3 cells 5 d Emax; for EC50: primary human T-cells + MCSP-TCB, MV-3 RFP cells, read-out: MSCP TCB killing MV-3 cells 5 d EC50. The class given is cell-based, human.

The target of the next test is hDGKzeta(1-928)-N-His (Homo sapiens (Human), UniProt Q13574). Description: DGKzeta ADP Glo assay (in vitro DGK inhibition). The conditions noted are these: DLG 125 uM, ATP 50 μM, DGK ζ 2 nM, 1 hour reaction. The class given is biochemical. The essentials:
(§1)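 His-tagged human DGKα (4 nM) and DGKζ (2 nM) phosphorylate DLG presented in DLG/PS/PC liposomes using ATP; reaction run 1 hour. ADP formed measured by ADP-Glo luminescence. Compounds tested as 11-point 1:3 dose response […], 2% DMSO final.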

In test [1] the test system is primary human T-cells. The experiment in a line: Proliferation assay after 5 days (CellTiter-Glo, CD3 stimulation; PBS counter screen). The class given is cell-based. The conditions noted are these: Homo sapiens, T-cell, 120 h, CD3 stimulation; for Emax: 5 days, normalized to reference compound A1 as stimulator control = 100%, DMSO neutral control, read-out: Emax proliferation (% activation); for EC50: primary human T-cells, CellTiter-Glo after 5 days, EC50 of fitted sigmoidal curve, read-out: Tcell Proliferation CD3 EC50. A digest of the protocol: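 Primary human T-cells, with or without CD3 stimulation, exposed to compounds for 5 days; cell number read as ATP by CellTiter-Glo 2.0 luminescence after 45 min equilibration and 15 min reagent incubation at room temperature. Compounds activating unstimulated cells or reducing viability were flagged.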
For orientation: In ATP-based viability assays light output follows the ATP content of the culture.

For test [2], the system named is primary human T-cells.
Another test concerns the target hDGKalpha(1-735)-N-His (Homo sapiens (Human), UniProt P23743). The experiment in a line: DGKalpha ADP Glo assay (in vitro DGK inhibition). The class given is biochemical. Conditions: DLG 125 uM, ATP 25 μM, DGK α 4 nM, 1 hour reaction. The essentials: as §1
On the technique in general: ADP-Glo first removes unused ATP, then detects ADP through luciferase.

Sequence of hDGKzeta(1-928)-N-His (Q13574 whole entry): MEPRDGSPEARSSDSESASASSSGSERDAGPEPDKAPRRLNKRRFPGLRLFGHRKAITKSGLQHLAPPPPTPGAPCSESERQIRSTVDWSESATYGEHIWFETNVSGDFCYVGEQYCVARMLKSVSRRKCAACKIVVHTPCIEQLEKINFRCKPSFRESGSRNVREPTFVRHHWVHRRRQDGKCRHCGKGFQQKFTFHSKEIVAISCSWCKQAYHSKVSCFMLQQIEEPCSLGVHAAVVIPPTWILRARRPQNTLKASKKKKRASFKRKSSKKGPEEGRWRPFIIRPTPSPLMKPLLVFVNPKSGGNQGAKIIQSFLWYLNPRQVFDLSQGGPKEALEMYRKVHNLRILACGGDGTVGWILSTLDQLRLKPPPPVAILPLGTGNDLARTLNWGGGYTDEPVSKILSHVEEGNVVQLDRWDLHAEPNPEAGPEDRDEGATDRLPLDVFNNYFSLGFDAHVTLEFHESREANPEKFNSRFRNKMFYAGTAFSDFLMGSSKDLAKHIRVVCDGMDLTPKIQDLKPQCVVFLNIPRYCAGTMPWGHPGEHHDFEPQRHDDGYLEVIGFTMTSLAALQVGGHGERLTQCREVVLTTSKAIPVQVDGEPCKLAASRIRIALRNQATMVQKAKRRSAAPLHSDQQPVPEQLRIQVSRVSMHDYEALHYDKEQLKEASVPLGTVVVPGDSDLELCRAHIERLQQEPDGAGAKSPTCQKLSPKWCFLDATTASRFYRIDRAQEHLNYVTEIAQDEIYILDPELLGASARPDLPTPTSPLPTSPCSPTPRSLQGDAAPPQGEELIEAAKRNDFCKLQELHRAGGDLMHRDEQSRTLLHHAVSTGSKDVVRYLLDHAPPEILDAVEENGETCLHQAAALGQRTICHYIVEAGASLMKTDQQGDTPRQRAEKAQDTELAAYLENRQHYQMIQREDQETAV
Sequence of hDGKalpha(1-735)-N-His (P23743 whole entry): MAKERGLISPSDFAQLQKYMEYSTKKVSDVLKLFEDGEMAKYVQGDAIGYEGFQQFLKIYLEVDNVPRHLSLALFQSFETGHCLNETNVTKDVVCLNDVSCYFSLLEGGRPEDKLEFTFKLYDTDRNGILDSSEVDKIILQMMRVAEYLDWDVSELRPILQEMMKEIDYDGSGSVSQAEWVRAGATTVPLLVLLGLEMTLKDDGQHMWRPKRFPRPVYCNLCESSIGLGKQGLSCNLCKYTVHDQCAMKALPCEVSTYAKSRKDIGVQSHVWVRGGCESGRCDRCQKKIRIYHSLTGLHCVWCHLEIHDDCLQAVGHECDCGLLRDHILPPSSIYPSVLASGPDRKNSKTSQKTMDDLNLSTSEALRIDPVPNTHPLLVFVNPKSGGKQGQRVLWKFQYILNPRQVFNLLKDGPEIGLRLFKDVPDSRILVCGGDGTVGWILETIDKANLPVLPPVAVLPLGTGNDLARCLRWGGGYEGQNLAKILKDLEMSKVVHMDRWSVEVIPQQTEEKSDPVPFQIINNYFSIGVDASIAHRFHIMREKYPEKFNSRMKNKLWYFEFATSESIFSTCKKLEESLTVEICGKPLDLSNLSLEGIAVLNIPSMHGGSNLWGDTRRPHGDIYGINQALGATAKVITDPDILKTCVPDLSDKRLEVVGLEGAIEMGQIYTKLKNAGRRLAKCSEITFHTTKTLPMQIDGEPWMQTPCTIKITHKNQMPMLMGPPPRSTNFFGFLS

With `CC1(Nc2nnc(-c3ccc4c(c3)N(Cc3ccc(Cl)cc3)C(=O)[C@@H](N)CS4(=O)=O)o2)CC(F)(F)C1` [Example 406, (3R)-3-amino-5-[(4-chlorophenyl)methyl]-7-[5-[(3,3-difluoro-1-methyl-cyclobutyl)amino]-1,3,4-oxadiazol-2-yl]-1,1-dioxo-2,3-dihydro-1λ^6,5-benzothiazepin-4-one], the Emax in the test on MV-3 cells was determined as 85%; in the test on primary human T-cells [1] it was 79%. For the same molecule, the EC50 with MV-3 cells was 1540 nM; in the test on primary human T-cells [1], 1860 nM; with primary human T-cells [2] it was 2510 nM. Besides, the IC50 (usually the concentration that gives 50% inhibition) against hDGKzeta(1-928)-N-His turned out to be 14000 nM; on hDGKalpha(1-735)-N-His, 5020 nM.

On to `N[C@H]1CS(=O)(=O)c2ccc(-c3nnc(N4CCOC(C(F)(F)F)C4)o3)cc2N(Cc2ccc(Cl)cc2)C1=O` (stereo partly drawn) [Example 412, (3R)-3-amino-5-[(4-chlorophenyl)methyl]-1,1-dioxo-7-[5-[2-(trifluoromethyl)morpholin-4-yl]-1,3,4-oxadiazol-2-yl]-2,3-dihydro-1λ^6,5-benzothiazepin-4-one], for which the Emax amounted to 92% in the test on MV-3 cells and 126% in the test on primary human T-cells [1]. Further, the figures for the EC50 in the test with MV-3 cells, in the test with primary human T-cells [1] and with primary human T-cells [2] were 140 nM, 176 nM and 2360 nM, respectively. In addition, the values for the IC50 on hDGKzeta(1-928)-N-His and on hDGKalpha(1-735)-N-His were 484 nM and 2690 nM, respectively.

For `N[C@H]1CS(=O)(=O)c2ccc(-c3nnc(CC(F)(F)F)o3)cc2N(Cc2ccc(OC(F)(F)F)cc2)C1=O` [Example 416, (3R)-3-amino-1,1-dioxo-7-[5-(2,2,2-trifluoroethyl)-1,3,4-oxadiazol-2-yl]-5-[[4-(trifluoromethoxy)phenyl]methyl]-2,3-dihydro-1λ^6,5-benzothiazepin-4-one], the Emax amounted to 95% in the test with MV-3 cells and 58% with primary human T-cells [1]. Besides, the EC50 in the test with MV-3 cells is 530 nM; in the test with primary human T-cells [1], 402 nM; in the test with primary human T-cells [2] it was 369 nM. Moreover, the IC50 stood at 1680 nM against hDGKzeta(1-928)-N-His and 1450 nM at hDGKalpha(1-735)-N-His.

As for `N[C@H]1CS(=O)(=O)c2ccc(-c3nnc(C4(N)CCCCC4)o3)cc2N(Cc2ccc(OC(F)(F)F)cc2)C1=O` [Example 417, (3R)-3-amino-7-[5-(1-aminocyclohexyl)-1,3,4-oxadiazol-2-yl]-1,1-dioxo-5-[[4-(trifluoromethoxy)phenyl]methyl]-2,3-dihydro-1λ^6,5-benzothiazepin-4-one], the figures for the Emax in the test with MV-3 cells and with primary human T-cells [1] were 182% and 70%, respectively. For the same molecule, the EC50 in the test with MV-3 cells was 1860 nM; with primary human T-cells [1], 337 nM; with primary human T-cells [2] it was 328 nM. For the same molecule, the IC50 turned out to be 2110 nM at hDGKzeta(1-928)-N-His and 6410 nM against hDGKalpha(1-735)-N-His.

For the molecule `CC(C)(C)c1nnc(-c2ccc3c(c2)N(Cc2ccc(OC4CCCC4)cc2)C(=O)[C@@H](N)CS3(=O)=O)o1` [Example 430, (3R)-3-amino-7-(5-tert-butyl-1,3,4-oxadiazol-2-yl)-5-[[4-(cyclopentoxy)phenyl]methyl]-1,1-dioxo-2,3-dihydro-1λ^6,5-benzothiazepin-4-one], the Emax was 96% in the test on MV-3 cells and 110% in the test on primary human T-cells [1]. In addition, the EC50 in the test on MV-3 cells is 60 nM; in the test on primary human T-cells [1] it was 97 nM; in the test on primary human T-cells [2], 24.2 nM. Moreover, the values for the IC50 against hDGKzeta(1-928)-N-His and on hDGKalpha(1-735)-N-His were 594 nM and 467 nM, respectively.

In the case of `N[C@H]1CS(=O)(=O)c2cc(F)c(-c3nnc(NC4CCC4)o3)cc2N(Cc2ccc(Cl)cc2)C1=O` [Example 459, (3R)-3-amino-5-[(4-chlorophenyl)methyl]-7-[5-(cyclobutylamino)-1,3,4-oxadiazol-2-yl]-8-fluoro-1,1-dioxo-2,3-dihydro-1λ^6,5-benzothiazepin-4-one], the Emax in the test on MV-3 cells and with primary human T-cells [1] was 91% in each case. Besides, the EC50 in the test on MV-3 cells was 330 nM; in the test with primary human T-cells [1] it was 591 nM; with primary human T-cells [2], 508 nM. The IC50 was determined as 632 nM at hDGKzeta(1-928)-N-His and 625 nM at hDGKalpha(1-735)-N-His.

For `N[C@H]1CS(=O)(=O)c2cc(F)c(-c3nnc(NC4CCCCC4)o3)cc2N(Cc2ccc(Cl)cc2)C1=O` [Example 466, (3R)-3-amino-5-[(4-chlorophenyl)methyl]-7-[5-(cyclohexylamino)-1,3,4-oxadiazol-2-yl]-8-fluoro-1,1-dioxo-2,3-dihydro-λ^6,5-benzothiazepin-4-one], the figures for the Emax with MV-3 cells and with primary human T-cells [1] were 95% and 103%, respectively. Further, the EC50 amounted to 240 nM in the test with MV-3 cells, 454 nM in the test on primary human T-cells [1] and 458 nM in the test with primary human T-cells [2]. Also, the IC50 on hDGKzeta(1-928)-N-His was 1030 nM; against hDGKalpha(1-735)-N-His, 2090 nM.
